Data from patent US10524472B2, “Elicitor peptides having disrupted hypersensitive response box and use thereof” (Plant Health Care, Inc., priority 2014, dated 2020).
Marks after values point to notes of the source that are not given here.

Legend:
[1] = tested on: tobacco mosaic virus (TMV); assay: Induction of resistance to tobacco mosaic virus in tobacco; assay type: in vivo; conditions: for Effectiveness Covered (%) (decline in TMV lesions vs UTC, systemic response) / Effectiveness Uncovered (%) (decline in TMV lesions vs UTC, local response): TMV 3 days post-treatment, scored 3 days after inoculation
corn plants = assay: Growth tests after foliar spray, corn; assay type: in vivo
Description: (§1) Soy seeds (or corn seeds, as indicated) were planted in flats with 2 seeds per cell within the flat at a greenhouse facility. The seeds were allowed to germinate and the smaller plant is culled, leaving one plant per cell. Once the first true leaves are fully expanded and the second leaves are beginning to expand, the plants were initially measured for height. This was performed by stretching the highest leaf upward and measuring the distance to the soil. Peptides were dissolved in water at the indicated concentrations (Table 21 below). The plants were then treated with a foliar spray using widely available spray bottles until liquid was dripping from the leaves. Six flats of 14 plants each were treated per condition (peptide or control). Designated untreated control plants were sprayed with water. The plants were allowed to grow for 14 days. The height of the plants was again measured and compared to the original height to quantify growth. Finally, the plants were harvested by removing the shoots (all above-ground material). For some experiments, this was weighed upon harvesting to determine the fresh mass (including water weight). The shoots were then dried at 70° C. for 72 hours, and again weighed to determine dry biomass. Although this method uses a similar measure (growth) as in Example 3 above, the treatment method is different (seed soak vs. foliar spray). As a result, the experimental outcomes may diverge.

[2] = tested on: soy plants (leaf tissue discs); assay: Peroxide response, ferric-xylenol orange assay on soy leaf discs; assay type: cell-based; conditions: 0.5 ug/ml peptide, one hour, absorbance at 595 nm vs blank
Description: (§2) The ferric-xylenol orange complex assay for hydrogen peroxide (Gay et al., Analytical Biochemistry 273:149-55 (1999), which is hereby incorporated by reference in its entirety) was used to determine peroxide production by plant leaf tissue. Briefly, reagent A was prepared by mixing 10 mg of ferrous ammonium sulfate with 133 uL of sulfuric acid in a total volume of 1 mL with water. Reagent B was prepared by mixing 2 g of sorbitol with 9.34 mg of xylenol orange in 80 ml of water. 1M hydrochloric acid was slowly added until the solution turned yellow. The solution was then diluted with water to a total volume of 100 mL, and stored in a dark bottle at 4° C.
(§3) Leaves from either tobacco plants (plants grown to 6 true leaves) or soy plants (plants grown to 6 true leaves) were used for the assay. The leaf was first removed from the plant and placed on a paper towel. 0.5 cm leaf tissue circles were then removed from the leaf using a leather punch tool. These discs were then placed into the wells of a 96-well plate. […] of water was added to each disc. The plate was covered with parafilm and rested for 12 hours in the dark. The excess water was then removed and the wells washed with an additional 250 uL of water. The washes were then removed from the wells and replaced with 105 uL of a 0.5 ug/ml solution of peptide in water or water blank, generally in quadruplicate. Where peptide solubility was a problem, pH buffer was added to both the blank and peptide samples. Leaf discs were incubated with the peptides for one hour under fluorescent lighting. 50 ul of the solution from each leaf sample was removed to a new well for chemical analysis.
(§4) Just prior to analysis, reagents A and B were freshly mixed in a 1:100 ratio to produce the assay reagent. 200 ul of this mixture was added to each well containing 50 ul of leaf-treated solution. The plate was incubated in the dark for 20 minutes and the absorbance at 595 nm was detected. Results were analyzed using a two-tailed Student's T-test. The results were divided into several response classes. XR++ indicated a positive response with absorbance >0.05 units above the negative control and a Student's T-test p<0.05. XR+ indicated an absorbance <0.05 units above the blank and a Student's T-test p<0.05. XR weak indicated a response >0.02 units above the negative control with a p-value that was not significant. XR− indicated an absorbance within 0.02 units of the negative control. It should be noted that there can be significant biological variability in the peroxide response due to plant age, location of the disc within the leaf, and other factors. As a result, p-values from the T-test are a guide and not an absolute inclusion criterion.

[3] = tested on: tobacco plants (leaf tissue discs); assay: Peroxide response, ferric-xylenol orange assay on tobacco leaf discs; assay type: cell-based; conditions: 0.5 ug/ml peptide, one hour, absorbance at 595 nm vs blank
Description: as §2, §3, §4

soybean seeds = assay: Root & shoot growth analysis after seed soak, soy; assay type: in vivo; conditions: for Root (root growth index, percentage increase over untreated control) / Shoot (shoot length, percentage increase over untreated control): soy, 12-14 days
Description: (§5) Peptides were tested for biological effects on the allocation of growth resources to the shoot (above ground) and root (below ground). Peptides were dissolved at 0.2, 2, or 5 μg/ml in a total volume of 100 ml deionized water. Corn or soybean seeds were then soaked for one hour in the peptide solution. Untreated control (UTC) plants were soaked in deionized water. Clear plastic 300 ml beverage cups (Solo®, Dart Container Corporation) were prepared for planting by marking the bottom with a cross, dividing the bottom into four equal quadrants. The cups were then filled with Sunshine Mix #1 soil (SunGro Horticulture) sieved to ¼″. 100 ml of water was added to the soil. Treated seeds were then planted by pressing the seed lightly into the top of the soil. The seeds were then covered with an additional 50 ml of loose soil. Seeds were allowed to germinate and grow for 12-14 days.
The length of the shoot was measured as the distance from the soil to the lightly stretched tip of the highest leaf for each plant. […] Stunting was defined as lacking a fully expanded true leaf at time of data collection or having an expanded true leaf judged by eye to be <½ the average leaf area of the treatment group. Generally, 30 seeds were planted per treatment group and 15-25 plants were used for data collection.
(§6) Root growth was estimated by counting the number of times that a primary root crosses the quadrant marks on the bottom of the cup. These were often observed along the bottom circumference of the cup, although some were visible along the side of the container and were counted as if crossing a vertical extension of the quadrant line. This number was divided by 4 to produce a root growth index.
Each number indicates the percentage increase over the untreated control values.

Soy plants = assay: Growth tests after foliar spray, soy; assay type: in vivo; conditions: for growth, dry biomass and fresh mass (text summary of Table 21): foliar spray; for Dry biomass increase (%) / Growth increase (%): soy, 14 days
Description: as §1

Corn seeds = assay: Root & shoot growth analysis after seed soak, corn; assay type: in vivo; conditions: seed soak 0.2 μg/ml, 12-14 days
Description: as §5
The length of the shoot was measured as the distance from the soil to the lightly stretched tip of the highest leaf for each plant. […]
as §6, with “This number was divided by 4 to produce a root growth index.” left out

[4] = foliar spray 2.0 ug/ml, 14 days

Question: Which “Effectiveness Covered (%) (decline in TMV lesions vs UTC, systemic response)” value (from here on “Effectiveness Covered (%)”) ([1]; spray 10 ug/ml) does the source give for NQGISEKQLDQLLTQLI (P1-29) here?
Answer: Its value is 18%.

Question: What about the “Effectiveness Uncovered (%) (decline in TMV lesions vs UTC, local response)” value (“Effectiveness Uncovered (%)” below) ([1]; spray 10 ug/ml) of the same sequence?
Answer: The value was 44%.

Question: And the “growth benefit in corn” value (corn plants; foliar spray)?
Answer: The value was “modest growth benefit”.

Question: And the “Dry biomass increase (%)” value (corn plants; [4])?
Answer: Its value is 5.7%.

Question: What about the “Fresh mass increase (%)” value (corn plants; [4]) of the same sequence?
Answer: Its value is 5.1%.

Question: What about the “Growth increase (%)” value (corn plants; [4]) of the same sequence?
Answer: The value was 7.8%.

Question: Which “Peroxide Response, Soy” value [2] does the source give for “QAGPQSANKTGNVDDANNQDPAQALEQLLEDLV (P14-22A,26E)” here?
Answer: Its value is “Weak+”.

Question: And the “Effectiveness Covered (%)” value ([1]; spray 20 ug/ml)?
Answer: Its value is 85* %.

Question: What about the “Effectiveness Uncovered (%)” value ([1]; spray 20 ug/ml) of the same sequence?
Answer: Its value is 91* %.

Question: How did the “Effectiveness Covered (%)” value ([1]; spray 20 ug/ml) turn out when “QAGPQSANKTGNVDDANNQDPEQALEQLLEDLV (P14-22E,26E)” was run?
Answer: The value was 62%.

Question: What about the “Effectiveness Uncovered (%)” value ([1]; spray 20 ug/ml) of the same sequence?
Answer: Its value is 74* %.

Question: And the “Peroxide Response, Tobacco” value [3]?
Answer: Its value is “Weak+”.

Question: How did the “Effectiveness Covered (%)” value ([1]; spray 20 ug/ml) turn out when “QAGPQSANKTGNVDDANNQDPLQALEQLLEDLV (P14-22L,26E)” was run?
Answer: Its value is 91* %.

Question: And the “Effectiveness Uncovered (%)” value ([1]; spray 20 ug/ml)?
Answer: The value was 70* %.

Question: What about the “Peroxide Response, Tobacco” value [3] of the same sequence?
Answer: Its value is “Weak+”.

Question: Which “Peroxide Response, Soy” value [2] does the source give for “QAGPQSANKTGNVDDANNQDPLQALLQAAEDLV (P14-22L,28-29A)” here?
Answer: Its value is “Weak+”.

Question: What about the “Effectiveness Covered (%)” value ([1]; spray 10 ug/ml) of the same sequence?
Answer: The value was 84* %.

Question: And the “Effectiveness Uncovered (%)” value ([1]; spray 10 ug/ml)?
Answer: Its value is 83* %.

Question: Which “Peroxide Response, Soy” value [2] does the source give for “QAGPQSANKTGNVDDANNQDPLQALLQLLEDLV (P14-22L,26L)” here?
Answer: Its value is “Weak+”.

Question: What about the “Effectiveness Covered (%)” value ([1]; spray 20 ug/ml) of the same sequence?
Answer: Its value is 67* %.

Question: What about the “Effectiveness Uncovered (%)” value ([1]; spray 20 ug/ml) of the same sequence?
Answer: The value was 65* %.

Question: QAGPQSANKTGNVDDANNQDPMQALMQLLEDLV (P14) was tested. Which “root growth (text summary of Table 20)” value (soybean seeds; seed soak) did it give?
Answer: The value was “Increased root growth”.

Question: What about the “Root (root growth index, percentage increase over untreated control)” value (soybean seeds; seed soak 5.0 μg/ml) of the same sequence?
Answer: Its value is 24.9%*.

Question: What about the “Shoot (shoot length, percentage increase over untreated control)” value (soybean seeds; seed soak 5.0 μg/ml) of the same sequence?
Answer: The value was 4.4%.

Question: What about the “Peroxide Response, Tobacco” value [3] of the same sequence?
Answer: The value was “Weak+”.

Question: And the “growth, dry biomass and fresh mass (text summary of Table 21)” value (Soy plants)?
Answer: The value was “increases in growth and dry biomass”.

Question: And the “Dry biomass increase (%)” value (Soy plants; foliar spray 2.0 ug/ml)?
Answer: The value was 1.6%.

Question: What about the “Growth increase (%)” value (Soy plants; foliar spray 2.0 ug/ml) of the same sequence?
Answer: Its value is 25.8%.

Question: And the “Dry biomass increase (%)” value (Soy plants; foliar spray 5.0 ug/ml)?
Answer: Its value is 3%.

Question: And the “Growth increase (%)” value (Soy plants; foliar spray 5.0 ug/ml)?
Answer: The value was 31.4%.

Question: What does the source list for SEEELQQLLKLFSEIL (P3-5)?
Answer: Effectiveness Covered (%) (decline in TMV lesions vs UTC, systemic response) ([1]; spray 10 ug/ml): 94* %; Effectiveness Uncovered (%) (decline in TMV lesions vs UTC, local response) ([1]; spray 10 ug/ml): 66%; Peroxide Response, Tobacco [3]: Weak +

Question: How did the “shoot growth (Table 20)” value (soybean seeds; seed soak, p14a soy at 0.2 μg/ml) turn out when SQGISEKQADQLLSQLIQALLQP (P4-14S-9A) was run?
Answer: Its value is “increased shoot growth”.

Question: And the “Root (root growth index, percentage increase over untreated control)” value (soybean seeds; seed soak 2.0 μg/ml)?
Answer: The value was 4.3%.

Question: What about the “Shoot (shoot length, percentage increase over untreated control)” value (soybean seeds; seed soak 2.0 μg/ml) of the same sequence?
Answer: Its value is 5.0%.

Question: And the “Root (root growth index, percentage increase over untreated control)” value (soybean seeds; seed soak 5.0 μg/ml)?
Answer: Its value is 2.5%.

Question: And the “Shoot (shoot length, percentage increase over untreated control)” value (soybean seeds; seed soak 5.0 μg/ml)?
Answer: The value was 6.5%*.

Question: What about the “TMV response / effectiveness against TMV infection (summary of Table 22)” value ([1]; foliar spray) of the same sequence?
Answer: Its value is “produced the best results”.

Question: What about the “Effectiveness Covered (%)” value ([1]; spray 5.0 ug/ml) of the same sequence?
Answer: Its value is 86* %.

Question: And the “Effectiveness Uncovered (%)” value ([1]; spray 5.0 ug/ml)?
Answer: Its value is 84* %.

Question: What about the “growth, dry biomass and fresh mass (text summary of Table 21)” value (Soy plants) of the same sequence?
Answer: Its value is “increases in growth and dry biomass”.

Question: What about the “Dry biomass increase (%)” value (Soy plants; foliar spray 2.0 ug/ml) of the same sequence?
Answer: The value was 10.8%.

Question: What about the “Growth increase (%)” value (Soy plants; foliar spray 2.0 ug/ml) of the same sequence?
Answer: Its value is 11.9%.

Question: And the “Root (root growth index, percentage increase over untreated control)” value (Corn seeds)?
Answer: The value was 4.8%.

Question: What about the “Shoot (shoot length, percentage increase over untreated control)” value (Corn seeds) of the same sequence?
Answer: The value was 3.9%*.

Question: With SQGISEKQDDQLLSQLIQALLQP (P4-14S-9D) as the sequence, how does the “Peroxide Response, Soy” value [2] read?
Answer: Its value is “Weak+”.

Question: What about the “Effectiveness Covered (%)” value ([1]; spray 10 ug/ml) of the same sequence?
Answer: Its value is 52%.

Question: And the “Effectiveness Uncovered (%)” value ([1]; spray 10 ug/ml)?
Answer: The value was 89%.

Question: How did the “Peroxide Response, Tobacco” value [3] turn out when SQGISEKQLDQLDSQLIQALLQP (P4-14S-13D) was run?
Answer: Its value is “Weak+”.

Question: How did the “Peroxide Response, Tobacco” value [3] turn out when SQGISEKQLDQLFSQLIQALLQP (P4-14S-13F) was run?
Answer: The value was “Weak+”.

Question: Which results are given for SQGISEKQLDQLQSQLIQALLQP (P4-14S-13Q)?
Answer: Effectiveness Covered (%) (decline in TMV lesions vs UTC, systemic response) ([1]; spray 10 ug/ml): 61* %; Effectiveness Uncovered (%) (decline in TMV lesions vs UTC, local response) ([1]; spray 10 ug/ml): 40%; Peroxide Response, Tobacco [3]: Weak+

Question: SQGISEKQSDQLLSQLIQALLQP (P4-14S-9S) was tested. Which “Peroxide Response, Tobacco” value [3] did it give?
Answer: The value was “Weak+”.
